Results: patent US7989464B2, “mGluR1 antagonists as therapeutic agents” (Schering Corporation, priority 2004, dated 2011)
Like-named read-outs stand apart in the source and are kept apart here.

Molecular target: T1, hmGluR1 receptor (Homo sapiens, UniProt Q13255)
T1 construct: expressed in transfected cells
Assay: IC50 determination: intracellular calcium mobilization (FLIPR) upon Quisqualate stimulation in CHO cells stably expressing hmGluR1
Type: cell-based
Settings: against Quisqualate 1 μM (EC80)
Summary of the method: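 CHO cells stably expressing hmGluR1 were kept overnight in DMEM high glucose with GPT and 1 mM pyruvate, then loaded 2 h with Calcium 3 dye.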

[1] = FLIPR calcium mobilization, read-out: IC50 Class
[2] = class symbols, read-out: mGIuR 1 IC50
[3] = FLIPR calcium mobilization, read-out: mGluR1 IC50

T1 sequence (Q13255 19-1194): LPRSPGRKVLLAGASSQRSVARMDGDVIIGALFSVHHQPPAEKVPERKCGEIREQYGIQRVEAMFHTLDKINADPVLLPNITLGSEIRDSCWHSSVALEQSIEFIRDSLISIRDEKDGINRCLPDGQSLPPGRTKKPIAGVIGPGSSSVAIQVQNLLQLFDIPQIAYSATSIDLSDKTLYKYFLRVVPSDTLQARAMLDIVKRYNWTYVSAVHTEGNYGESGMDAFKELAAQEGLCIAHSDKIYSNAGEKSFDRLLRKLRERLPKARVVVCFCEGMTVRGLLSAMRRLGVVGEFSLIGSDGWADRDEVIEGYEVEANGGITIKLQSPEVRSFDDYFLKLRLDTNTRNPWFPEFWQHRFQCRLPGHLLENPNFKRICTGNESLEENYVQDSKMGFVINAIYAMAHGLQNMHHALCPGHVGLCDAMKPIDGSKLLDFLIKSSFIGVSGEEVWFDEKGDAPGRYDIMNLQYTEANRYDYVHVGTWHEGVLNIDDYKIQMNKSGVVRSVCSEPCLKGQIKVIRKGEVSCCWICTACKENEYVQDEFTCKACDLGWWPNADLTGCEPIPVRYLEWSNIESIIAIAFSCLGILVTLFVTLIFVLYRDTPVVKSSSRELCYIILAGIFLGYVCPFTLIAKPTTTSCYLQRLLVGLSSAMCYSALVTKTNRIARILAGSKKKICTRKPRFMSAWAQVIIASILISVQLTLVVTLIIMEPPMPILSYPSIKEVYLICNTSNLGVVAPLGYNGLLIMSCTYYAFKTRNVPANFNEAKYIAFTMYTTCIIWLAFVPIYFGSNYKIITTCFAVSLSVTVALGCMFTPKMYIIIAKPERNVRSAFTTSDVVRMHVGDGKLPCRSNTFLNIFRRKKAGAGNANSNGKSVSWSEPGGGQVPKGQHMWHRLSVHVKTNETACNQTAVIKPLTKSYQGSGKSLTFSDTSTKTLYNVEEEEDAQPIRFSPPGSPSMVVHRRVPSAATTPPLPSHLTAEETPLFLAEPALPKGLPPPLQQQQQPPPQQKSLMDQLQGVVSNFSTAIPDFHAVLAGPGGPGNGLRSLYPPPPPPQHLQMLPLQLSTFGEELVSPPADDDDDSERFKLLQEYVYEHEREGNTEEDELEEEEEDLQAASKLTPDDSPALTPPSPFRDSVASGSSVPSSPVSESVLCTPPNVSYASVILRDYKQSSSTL

| SMILES | IC50 [1] [nM] | IC50 [2] [nM] | IC50 [3] [nM] |
| --- | --- | --- | --- |
| CN(C)c1ccnc2sc3c(=O)n(-c4ccc5[nH]c(=O)[nH]c5c4)cnc3c12 [7CS] |  | 150 to 1000 |  |
| O=c1c2sc3nccc(NC4CC4)c3c2ncn1C1CCCCC1 [28S] |  | < 50 |  |
| O=c1c2sc3nccc(NC4CCCCC4)c3c2ncn1-c1ccc(OC(F)(F)F)cc1 [28F] |  | > 1000 |  |
| O=c1c2sc3nccc(NC4CC4)c3c2ncn1-c1cccc(Cl)c1 [28CB] | 50 to 150 |  |  |
| CN(C)c1ccnc2sc3c(=O)n(-c4ccc(Br)c(F)c4)cnc3c12 [7DV] |  | < 50 | 1.71 |
| COc1ccc(-n2cnc3c(sc4ncc(Br)c(N(C)C)c43)c2=O)cc1Br [compound 149] |  | > 1000 |  |
| CNc1ccnc2sc3c(=O)n(C4CCCCC4)cnc3c12 [28X] |  | < 50 |  |
| CC(=O)NN(C)c1ccnc2sc3c(=O)n(-c4ccc(Cl)cc4)cnc3c12 [73H] | 150 to 1000 |  |  |
| CCc1ncnc2sc3c(=O)n(-c4ccc(Cl)cc4)cnc3c12 [compound 202] | < 50 |  |  |
| CN(C)c1cncc2sc3c(=O)n(-c4ccc5c(c4)OCCO5)cnc3c12 [37C] |  | 50 to 150 |  |
| CN(C)c1ccnc2sc3c(=O)n(-c4ccc(O)cc4)cnc3c12 [7AK] |  | < 50 |  |
| O=c1c2sc3nccc(N4CCCC4)c3c2ncn1-c1ccc(Br)cc1 [28GT] | 150 to 1000 |  |  |
| CNc1c(CNC2CCC2)cnc2sc3c(=O)n(-c4ccc(OC)cc4)cnc3c12 [compound 208] | 150 to 1000 |  |  |
| COc1ccc(-c2c(C(C)=O)c(C)nc3sc4c(=O)n(-c5ccccc5)cnc4c23)cc1 [P-12] |  | 150 to 1000 |  |
| Cc1ccc(-n2cnc3c(sc4nccc(NCC(C)(C)C)c43)c2=O)cc1 [28ES] | > 1000 |  |  |
| O=c1c2sc3nccc(N4CC[C@@H](O)C4)c3c2ncn1C1CCCCC1 [28M] |  | > 1000 |  |
| CN(C)c1ccnc2sc3c(=O)n(-c4ccc(OC(F)F)cc4)cnc3c12 [7Z] |  | < 50 |  |
| CN(C)c1c(Cl)cnc2sc3c(=O)n(C4CCCCC4)cnc3c12 [compound 41] |  | 50 to 150 |  |
| COc1ccccc1-n1cnc2c(sc3nc(N4CCOCC4)c4c(c32)CC(C)(C)OC4)c1=O [P-5] |  | 150 to 1000 |  |
| CN(C)c1cncc2sc3c(=O)n(-c4ccc(Cl)cc4)cnc3c12 [37E] |  | < 50 |  |
| CNc1ccnc2sc3c(=O)n(-c4ccc5c(c4)OCO5)cnc3c12 [7CB] |  | < 50 |  |
| O=c1c2sc3nccc(N4CCCCC4)c3c2ncn1-c1ccc(Cl)cc1 [28GH] | > 1000 |  |  |
| CN(C)c1ccnc2sc3c(=O)n(C4CC4)cnc3c12 [15K] |  | > 1000 |  |

| SMILES | IC50 [1] [nM] | IC50 [2] [nM] | IC50 [3] [nM] |
| --- | --- | --- | --- |
| CNc1c(C#N)cnc2sc3c(=O)n(-c4ccc(Cl)cc4)cnc3c12 [compound 189] | 50 to 150 |  |  |
| CC#CCOc1ccnc2sc3c(=O)n(-c4ccc(C)cc4)cnc3c12 [66B] |  | > 1000 |  |
| CN(C)c1ccnc2sc3c(=O)n(-c4ccc(Cl)cc4I)cnc3c12 [7N] |  | 150 to 1000 |  |
| Cc1ccc(-n2cnc3c(sc4nc(N5CCNCC5)cc(N(C)C)c43)c2=O)cc1 [59B] |  | > 1000 |  |
| COc1ccc(-n2cnc3c(sc4nccc(NCC(F)(F)F)c43)c2=O)c(F)c1 [28BM] | 50 to 150 |  |  |
| Cc1ccc(-n2cnc3c(sc4nccc(NN)c43)c2=O)cc1 [28DK] | 150 to 1000 |  |  |
| CN(C)c1cc[n+]([O-])c2sc3c(=O)n(-c4ccc(Cl)cc4)cnc3c12 [12B] |  | 50 to 150 |  |
| COc1ccc(-n2cnc3c(sc4nccnc43)c2=O)cc1 [compound 40] |  | > 1000 |  |
| CN(C)c1ccnc2sc3c(=O)n(C4CCCc5ccccc54)cnc3c12 (stereo not shown) [7AI] |  | 150 to 1000 |  |
| COc1ccc(-n2cnc3c(sc4nccc(N(C)CC(O)CO)c43)c2=O)cc1 (stereo not shown) [28HV] | < 50 |  |  |
| Cc1ccc(-n2cnc3c(sc4nccc(N(C)C)c43)c2=O)cc1F [7DH] |  | < 50 | 2.02 |
| CCN(C)c1ccnc2sc3c(=O)n(-c4ccc(F)cc4)cnc3c12 [28ID] | < 50 |  |  |
| CN(C)c1ccnc2sc3c(=O)n(-c4ccccc4)cnc3c12 [7D] |  | < 50 |  |
| CNc1ccc(-n2cnc3c(sc4nccc(N(C)C)c43)c2=O)cc1 [7CF] |  | < 50 |  |
| CCCN(C)c1ccnc2sc3c(=O)n(-c4ccc(OC)cc4)cnc3c12 [28AO] |  | < 50 |  |
| Cc1ccc(-n2cnc3c(sc4nccc(C(C)C)c43)c2=O)cc1 [29F] | < 50 |  |  |
| CN(C)c1ccnc2sc3c(=O)n([C@H]4CC[C@H](O)CC4)cnc3c12 [15T] |  | 150 to 1000 |  |
| CN(C)c1ccnc2sc3c(=O)n(-c4ccc(Br)cc4)cnc3c12 [7H] |  | < 50 |  |
| COc1ccc(-n2cnc3c(sc4nccc(NCCO)c43)c2=O)cc1 [28DB] | < 50 |  |  |
| CCN(CC)c1ccnc2sc3c(=O)n(-c4ccc(OC)cc4)cnc3c12 [28AQ] |  | 50 to 150 |  |
| C=CCNc1ccnc2sc3c(=O)n(-c4ccc(Cl)cc4)cnc3c12 [28DY] | 50 to 150 |  |  |
| Cc1cc(N(C)C)c2c(n1)sc1c(=O)n(-c3ccc(Br)cc3)cnc12 [7CY] |  | < 50 |  |
| COc1ccc(-n2cnc3c(sc4ncc(Cl)c(N(C)C)c43)c2=O)cc1 [compound 197] | < 50 |  |  |

| SMILES | IC50 [1] [nM] | IC50 [2] [nM] | IC50 [3] [nM] |
| --- | --- | --- | --- |
| Cc1ccc(-n2cnc3c(sc4nccc(NCC#N)c43)c2=O)cc1 [28AA] |  | < 50 | 1.81 |
| C=C(C)CNc1ccnc2sc3c(=O)n(-c4ccc5c(c4)OCCO5)cnc3c12 [28FF] | 150 to 1000 |  |  |
| CCc1ccc(-n2cnc3c(sc4nccc(NC5CC5)c43)c2=O)cc1 [28BT] | 50 to 150 |  |  |
| O=c1c2sc3nccc(OCCO)c3c2ncn1-c1ccc(Cl)cc1 [66H] | > 1000 |  |  |
| O=c1c2sc3nccc(NCCCO)c3c2ncn1-c1ccc(Cl)cc1 [28GD] | < 50 |  | 0.77 |
| CN(C)c1ccnc2sc3c(=O)n(Cc4ccc(Cl)cc4)cnc3c12 [7I] |  | > 1000 |  |
| CN(C)c1ccnc2sc3c(=O)n(-c4ccc5scnc5c4)cnc3c12 [7CR] |  | < 50 |  |
| CN(C)c1ccnc2sc3c(=O)n(N4CCCC4)cnc3c12 [60I] |  | 50 to 150 |  |
| Cc1ccc(-n2cnc3c(sc4nc(S)nc(N)c43)c2=O)cc1 [71F] | < 50 |  |  |
| CC(=O)Nc1ccnc2sc3c(=O)n(C4CCCCC4)cnc3c12 [73B] |  | > 1000 |  |
| COc1ccnc2sc3c(=O)n(-c4ccc(Cl)cc4Cl)cnc3c12 [28FV] | > 1000 |  |  |
| COc1cc(-n2cnc3c(sc4nccc(N(C)C)c43)c2=O)ccc1Br [7DT] |  | 150 to 1000 |  |
| CON(C)c1ccnc2sc3c(=O)n(-c4ccc(Cl)cc4)cnc3c12 [28DN] | < 50 |  |  |
| CN(C)c1ccnc2sc3c(=O)n(-c4ccc5[nH]ccc5c4)cnc3c12 [7AM] |  | < 50 |  |
| O=c1c2sc3nccc(N4CCNCC4)c3c2ncn1C1CCCCC1 [28U] |  | > 1000 |  |
| CN(C)c1ccnc2sc3c(=O)n(Cc4ccsc4)cnc3c12 [15V] |  | 150 to 1000 |  |
| O=c1c2sc3nccc(NCCCCO)c3c2ncn1-c1ccc(Cl)cc1 [28GE] | < 50 |  | 0.28 |
| O=c1c2sc3nccc(NCC4CC4)c3c2ncn1-c1ccc2occc2c1 [28BX] | 150 to 1000 |  |  |
| CN(C)c1ccnc2sc3c(=O)n(-c4ccc5[nH]c(C(F)(F)F)nc5c4)cnc3c12 [7BD] |  | > 1000 |  |
| C#CCNc1ccnc2sc3c(=O)n(-c4ccc(OC)c(F)c4)cnc3c12 [28DW] | < 50 |  |  |
| CN(C)c1c(-c2ccc(F)cc2)cnc2sc3c(=O)n(C4CCCCC4)cnc3c12 [47B] |  | > 1000 |  |
| CN(C)c1ccnc2sc3c(=O)n(-c4cccs4)cnc3c12 [15AB] |  | < 50 |  |

Further lines, results first:

| IC50 [1] [nM] | IC50 [2] [nM] | IC50 [3] [nM] | SMILES |
| --- | --- | --- | --- |
| < 50 |  |  | Cc1ccc(-n2cnc3c(sc4nccc(NC5CC5)c43)c2=O)cc1F [131L] |
| > 1000 |  |  | COc1ccc(-n2cnc3c(sc4ncnc(Nc5ccccc5)c43)c2=O)cc1F [95GA] |
|  | < 50 |  | CCN(C)c1ncnc2sc3c(=O)n(-c4ccc5c(c4)OCC5)cnc3c12 [95K] |
| 50 to 150 |  |  | Cc1ccc(-n2cnc3c(sc4nccc(NC5CC5)c43)c2=O)c(F)c1 [131M] |
|  | < 50 |  | CCN(C)c1ncnc2sc3c(=O)n(-c4ccc(C)nc4)cnc3c12 [95U] |
| 50 to 150 |  |  | C=C(C)CNc1ncnc2sc3c(=O)n(-c4ccc(OC)c(F)c4)cnc3c12 [95FB] |
|  | < 50 |  | CCNc1ncnc2sc3c(=O)n(-c4ccc(OC(F)F)cc4)cnc3c12 [95W] |
|  | < 50 |  | CCN(C)c1ncnc2sc3c(=O)n(-c4ccc(SC)cc4)cnc3c12 [95L] |
| > 1000 |  |  | CN(C)c1cccc2sc3c(=O)n(-c4ccc(Cl)c(Cl)c4)cnc3c12 [103J] |
| < 50 |  | 1.46 | C=CCc1cnc2sc3c(=O)n(-c4ccc(Cl)cc4)cnc3c2c1N [178B] |
| 150 to 1000 |  |  | CCNc1nncc2sc3c(=O)n(-c4ccc(C)cc4)cnc3c12 [167I] |
| < 50 |  |  | Cc1nc(N)c2c(n1)sc1c(=O)n(-c3ccc(Cl)cc3)cnc12 [95EV] |
| > 1000 |  |  | COCCNc1ncnc2sc3c(=O)n(CCOC)cnc3c12 [95DX] |
| 50 to 150 |  |  | COc1ccc(-n2cnc3c(sc4nccc(NC5CC5)c43)c2=O)c(F)c1 [131H] |
| < 50 |  |  | CNc1ncnc2sc3c(=O)n(-c4ccc(F)cc4)cnc3c12 [95DC] |
| < 50 |  |  | O=c1c2sc3ncnc(NCC(F)(F)F)c3c2ncn1-c1ccc(Cl)cc1 [95EF] |
| < 50 |  | 1.54 | C=CCNc1ncnc2sc3c(=O)n(-c4ccc(Br)cc4)cnc3c12 [95BO] |
| 150 to 1000 |  |  | COc1ccc(-n2cnc3c(sc4ncnc(Nc5cccc(C#N)c5)c43)c2=O)cc1 [190I] |
| 150 to 1000 |  |  | O=c1c2sc3ncnc(Nc4ccccc4)c3c2ncn1-c1ccc(Cl)cc1 [95FX] |
|  | 150 to 1000 |  | Cc1nc2c(sc3nccc(NC4CC4)c32)c(=O)n1-c1ccccc1 [113C] |
|  | < 50 |  | CN(C)c1ncnc2sc3c(=O)n(-c4ccc5c(c4)CCO5)cnc3c12 [95E] |
|  | < 50 |  | CCNc1ccnc2sc3c(=O)n(-c4ccccc4)c(C)nc3c12 [113F] |
| < 50 |  |  | Cc1ccc(-n2cnc3c(sc4nc(O)cc(N(C)C)c43)c2=O)cc1 [172A] |
| > 1000 |  |  | COCCNc1nncc2sc3c(=O)n(-c4ccc(C)cc4)cnc3c12 [167D] |
| < 50 |  |  | O=c1c2sc3ncnc(NCC(F)(F)F)c3c2ncn1-c1ccc(Br)cc1 [95EE] |
|  | 150 to 1000 |  | CN(C)c1cccc2sc3c(=O)n(-c4ccccc4)cnc3c12 [103C] |
|  | 50 to 150 |  | Cc1ccc(-n2cnc3c(sc4cccc(N(C)C)c43)c2=O)cc1 [103D] |
| > 1000 |  |  | Cc1ccc(-n2cnc3c(sc4cnnc(NCCCO)c43)c2=O)cc1 [167F] |
